For the assay, the system named is L1210 leukemia ip in BDF1 mice, survival T/C. Put plainly: NCI In Vivo Anticancer Drug Screen. Data for tumor model L1210 Leukemia (intraperitoneal) in B6D2F1 (BDF1) mice. The following applies: endpoint: mean survival time, higher = longer survival. In outline: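 Survival endpoint. Drug-treated group vs vehicle group, expressed as T divided by C. Tumor passaged by transplantation.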

[1] abbreviates: dose: 100.0 mg/kg/injection, schedule: Q01DX001 (ip), vehicle: Klucel (hydroxypropylcellulose) (HPC).
Setting [2] is: dose: 200.0 mg/kg/injection, schedule: Q01DX001 (ip), vehicle: Klucel (hydroxypropylcellulose) (HPC).
Setting [3] is: dose: 400.0 mg/kg/injection, schedule: Q01DX001 (ip), vehicle: Klucel (hydroxypropylcellulose) (HPC).
The mark [4] stands for this setting: dose: 50.0 mg/kg/injection, schedule: Q01DX001 (ip), vehicle: saline.
[5] abbreviates: dose: 100.0 mg/kg/injection, schedule: Q01DX001 (ip), vehicle: saline.
Setting [6] is: dose: 200.0 mg/kg/injection, schedule: Q01DX001 (ip), vehicle: saline.
Where [7] appears, read: dose: 400.0 mg/kg/injection, schedule: Q01DX001 (ip), vehicle: saline.
The mark [8] stands for this setting: dose: 100.0 mg/kg/injection, schedule: Q01DX009 (ip), vehicle: Klucel (hydroxypropylcellulose) (HPC).
[9] abbreviates: dose: 200.0 mg/kg/injection, schedule: Q01DX009 (ip), vehicle: Klucel (hydroxypropylcellulose) (HPC).
[10] abbreviates: dose: 400.0 mg/kg/injection, schedule: Q01DX009 (ip), vehicle: Klucel (hydroxypropylcellulose) (HPC).
[11] abbreviates: dose: 100.0 mg/kg/injection, schedule: Q04DX003 (ip), vehicle: saline.
The mark [12] stands for this setting: dose: 200.0 mg/kg/injection, schedule: Q04DX003 (ip), vehicle: saline.
Where [13] appears, read: dose: 100.0 mg/kg/injection, schedule: Q04DX002 (ip), vehicle: saline.
The mark [14] stands for this setting: dose: 200.0 mg/kg/injection, schedule: Q04DX002 (ip), vehicle: saline.

SMILES strings stand for the structures. Several values for one entry are separate records, joined by “and”; a condition that tells them apart may be missing. Identical values can stand only once. Toxic doses and inconclusive results are not listed.

For `O=C(NCCCl)NC1CCC2CCCCC2C1` (stereo not drawn), the T/C runs as follows: under setting [1], 100 % of control; (dose: 100.0 mg/kg/injection, schedule: Q04DX003 (ip), vehicle: Klucel (hydroxypropylcellulose) (HPC)) 92 % of control; under setting [2], 102 % of control; (dose: 200.0 mg/kg/injection, schedule: Q04DX003 (ip), vehicle: Klucel (hydroxypropylcellulose) (HPC)) 97 % of control; under setting [3], 92 % of control; (dose: 400.0 mg/kg/injection, schedule: Q04DX003 (ip), vehicle: Klucel (hydroxypropylcellulose) (HPC)) 97 % of control.
`O=C1C(Br)=CC(=NCl)C=C1Br`: the T/C reads like this: (dose: 6.25 mg/kg/injection, schedule: Q01DX009 (ip), vehicle: DMSO) 87 % of control; (dose: 12.5 mg/kg/injection, schedule: Q01DX009 (ip), vehicle: DMSO) 94 % of control; (dose: 12.5 mg/kg/injection, schedule: Q04DX002 (ip), vehicle: DMSO) 103 % of control; (dose: 25.0 mg/kg/injection, schedule: Q04DX002 (ip), vehicle: DMSO) 95 % of control.
For the molecule `CC(/C=N/Nc1nnc(N/N=C/C(C)=C/c2ccccc2)c2ccccc12)=C\c1ccccc1`, the T/C is 94 % of control (dose: 50.0 mg/kg/injection, schedule: Q01DX001 (ip), vehicle: carboxymethylcellulose (CMC)); 102 % of control (dose: 100.0 mg/kg/injection, schedule: Q01DX001 (ip), vehicle: carboxymethylcellulose (CMC)); 96 % of control (dose: 200.0 mg/kg/injection, schedule: Q01DX001 (ip), vehicle: carboxymethylcellulose (CMC)); 112 % of control (dose: 400.0 mg/kg/injection, schedule: Q01DX001 (ip), vehicle: carboxymethylcellulose (CMC)).
Take `CC1(C)C(=O)CC[C@@]2(C)C1=CC[C@@H]1[C@@H]2CC[C@@]2(C)[C@H]1CC[C@]2(C)O`: the T/C by setting is: (dose: 50.0 mg/kg/injection, schedule: Q01DX Z (sc), vehicle: steriod suspending solution) 91 % of control; (dose: 250.0 mg/kg/injection, schedule: Q01DX Z (sc), vehicle: steriod suspending solution) 96 % of control; (dose: 500.0 mg/kg/injection, schedule: Q01DX Z (sc), vehicle: steriod suspending solution) 101 % of control.
Turning to `COC(=O)C[CH2][Pb]([c]1ccccc1)([c]1ccccc1)[c]1ccccc1`, the T/C by setting is: (dose: 100.0 mg/kg/injection, schedule: Q04DX002 (ip), vehicle: saline with Tween-80) 102 % of control; (dose: 200.0 mg/kg/injection, schedule: Q04DX002 (ip), vehicle: saline with Tween-80) 113 % of control.
With `C=CCOc1ccn(CC=C)c(=O)n1`, the T/C runs as follows: under setting [1], 96 % of control; under setting [2], 98 % of control; under setting [3], 105 % of control.
With `COc1ccccc1NC(=O)NNC(=O)CCCC(=O)NNC(=O)Nc1ccccc1OC`, the T/C runs as follows: under setting [4], 100 % of control; under setting [5], 97 % of control; under setting [6], 103 % of control; under setting [7], 97 % of control.
On to `Cc1ccc(S(=O)(=O)NC(=O)N(CCCl)N=O)cc1`, for which the T/C was 113 % of control (dose: 10.0 mg/kg/injection, schedule: Q01DX001 (ip), vehicle: other); 216 % of control (dose: 40.0 mg/kg/injection, schedule: Q01DX001 (ip), vehicle: other); 220 % of control (dose: 62.0 mg/kg/injection, schedule: Q01DX001 (ip), vehicle: other); 307 % of control (dose: 93.0 mg/kg/injection, schedule: Q01DX001 (ip), vehicle: other); 168 % of control (dose: 187.0 mg/kg/injection, schedule: Q01DX001 (ip), vehicle: other).
For `O=C(N/N=C/c1ccccc1O)c1ccccc1NC(=O)C1CC1`, the T/C runs as follows: under setting [8], 104 % of control; under setting [9], 95 % of control; under setting [10], 101 % of control.
Consider `O=C(O)COc1cccc([N+](=O)[O-])c1`, for which the T/C is 96 % of control under setting [8], 98 % of control under setting [9] and 94 % of control under setting [10].
For `CCS(=O)(=O)Cc1ccccc1`, the T/C runs as follows: under setting [8], 100 % of control; under setting [9], 106 % of control; under setting [10], 102 % of control.
Take `O=C(Nc1ccc(C2=NCCN2)cc1)N1CCN(C(=O)Nc2ccc(C3=NCCN3)cc2)CC1`: the T/C (dose: 250.0 mg/kg/injection, schedule: Q01DX Z (ip), vehicle: water) was 87 % of control.
Consider `C[N+](C)(C)CCOc1ccc([N+](=O)[O-])cc1`, for which the T/C reads like this: under setting [4], 95 % of control; under setting [5], 104 % of control; under setting [6], 92 % of control.
On to `CCCCCC(CN(C)C)C(=O)/C=C/c1ccc(Cl)cc1` (stereo not drawn), for which the T/C reads like this: (dose: 12.5 mg/kg/injection, schedule: Q01DX009 (sc), vehicle: other) 100 % of control; (dose: 25.0 mg/kg/injection, schedule: Q01DX009 (sc), vehicle: other) 100 % of control; (dose: 50.0 mg/kg/injection, schedule: Q01DX009 (sc), vehicle: other) 93 % of control; (dose: 50.0 mg/kg/injection, schedule: Q04DX003 (sc), vehicle: steriod suspending solution) 95 % of control; (dose: 75.0 mg/kg/injection, schedule: Q01DX009 (sc), vehicle: other) 98 % of control; (dose: 100.0 mg/kg/injection, schedule: Q01DX001 (sc), vehicle: steriod suspending solution) 91 % of control. The T/C was 100 % of control (dose: 115.0 mg/kg/injection, schedule: Q01DX009 (sc), vehicle: other) and 116 % of control (dose: 200.0 mg/kg/injection, schedule: Q01DX001 (sc), vehicle: steriod suspending solution).
For the molecule `CCCCN1COC(OCC)C(C)(C)C1` (stereo not drawn), the T/C is 116 % of control (dose: 75.0 mg/kg/injection, schedule: Q01DX009 (ip), vehicle: saline); 113 % of control (dose: 150.0 mg/kg/injection, schedule: Q01DX009 (ip), vehicle: saline); 112 % of control (dose: 300.0 mg/kg/injection, schedule: Q01DX009 (ip), vehicle: saline).
In the case of `O=C(Cc1cccc2ccccc12)N/N=C/c1ccccc1O`, the T/C was 86 % of control (dose: 25.0 mg/kg/injection, schedule: Q01DX009 (ip), vehicle: saline with Tween-80); 93 % of control (dose: 50.0 mg/kg/injection, schedule: Q01DX009 (ip), vehicle: saline with Tween-80); 100 % of control and 89 % of control (dose: 100.0 mg/kg/injection, schedule: Q01DX009 (ip), vehicle: saline with Tween-80).
Regarding `N=c1cc(-c2ccc(Cl)cc2)ss1`, the T/C by setting is: (dose: 50.0 mg/kg/injection, schedule: Q01DX009 (ip), vehicle: saline) 91 % of control; (dose: 100.0 mg/kg/injection, schedule: Q01DX009 (ip), vehicle: saline) 97 % of control; under setting [11], 100 % of control; (dose: 200.0 mg/kg/injection, schedule: Q01DX009 (ip), vehicle: saline) 91 % of control; under setting [12], 92 % of control.
For `Cc1ccc(S(=O)(=O)N(CCCc2c(N)nc(N)nc2-c2ccccc2)c2ccccc2)cc1`, the T/C is 100 % of control under setting [11] and 97 % of control under setting [12].
`CCC#CC(=O)OCC`: the T/C is, setting by setting: under setting [13], 108 % of control; under setting [14], 97 % of control; (dose: 400.0 mg/kg/injection, schedule: Q04DX002 (ip), vehicle: saline) 105 % of control.
In the case of `CNNc1cc(CO)cnc1SC`, the T/C reads like this: under setting [5], 105 % of control; under setting [6], 104 % of control.
For `CNC(=O)C(C)NC(C)=O` (stereo not drawn), the T/C (dose: 50.0 mg/kg/injection, schedule: Q04DX002 (ip), vehicle: saline) is 99 % of control; the T/C under setting [13] is 102 % of control; the T/C under setting [14] was 105 % of control.
In the case of `CCC(CC)(CC)c1ccc2ccccc2c1`, the T/C by setting is: under setting [5], 98 % of control; under setting [6], 96 % of control; under setting [7], 106 % of control.
On to `CCOC(=O)C1C(=O)CC2c3nc4ccccc4cc3CN2C1=O` (stereo not drawn), for which the T/C (dose: 75.0 mg/kg/injection, schedule: Q01DX001 (ip), vehicle: saline) is 97 % of control and the T/C (dose: 150.0 mg/kg/injection, schedule: Q01DX001 (ip), vehicle: saline) is 114 % of control.

Source of the values: PubChem BioAssay AID248 (DTP/NCI, 2004).
